The source of these data is patent US11078193B2 (priority 2014, dated 2021).

pEC50: −log10 of the molar value. Some results are limits rather than exact numbers.

Data set [1] relates to HBV. In words: anti HBV activity, HepG2.117 inducibly HBV producing cell line (Tet-off), intracellular HBV DNA by realtime PCR. It counts as cell-based. The following applies: Hepatitis B virus, 72 h, HepG2.117 cells, 3 days of treatment.
Data set [2] can be described thus: Cytotoxicity, HepG2 cells, Resazurin assay. It counts as cell-based. The conditions noted are these: human. (In general: The colour change of resazurin is a common sign of viable cells or microbes.)

Broadly, the pEC50 is the negative decadic logarithm of the EC50, by convention in mol/L. In general, CC50 refers to the concentration at which the toxic effect on the cells reaches its halfway point. Read a high CC50 as better tolerance by the cells. `Cn1cc(S(=O)(=O)NC2CCC2(F)F)c(F)c1C(=O)Nc1ccnc(C(F)F)c1` (stereo not shown) [Compound 127, 4-[(2,2-difluorocyclobutyl)sulfamoyl]-N-[2-(difluoromethyl)-4-pyridyl]-3-fluoro-1-methyl-pyrrole-2-carboxamide] had a pEC50 in data set [1] of 7.30. This molecule also returned a CC50 at 4 days in data set [2] of more than 25000 nM.

In data set [1], `CC[C@@H](C)NS(=O)(=O)c1cn(C)c(C(=O)Nc2ccnc(C(F)(F)F)c2)c1F` [Compound 68, 3-fluoro-1-methyl-4-[[(1R)-1-methylpropyl]sulfamoyl]-N-[2-(trifluoromethyl)-4-pyridyl]pyrrole-2-carboxamide] showed a pEC50 of 7.30. Further, the CC50 at 4 days in data set [2] was more than 25000 nM.

In the case of `CC[C@H](NS(=O)(=O)c1cn(C)c(C(=O)Nc2ccnc(C(F)F)c2)c1Cl)C(F)(F)F` [Compound 84, 3-chloro-N-[2-(difluoromethyl)-4-pyridyl]-1-methyl-4-[[(1S)-1-(trifluoromethyl)propyl]sulfamoyl]pyrrole-2-carboxamide], in data set [1], the pEC50 was 6.96. The CC50 at 4 days in data set [2] is more than 25000 nM.

On to `C[C@@H](NS(=O)(=O)c1cn(C)c(C(=O)Nc2c(Cl)c(F)nc(F)c2Cl)c1Cl)C(F)(F)F` [Compound 186, 3-chloro-N-(3,5-dichloro-2,6-difluoro-4-pyridyl)-1-methyl-4-[[(1R)-2,2,2-trifluoro-1-methyl-ethyl]sulfamoyl]pyrrole-2-carboxamide], for which the pEC50 in data set [1] is 4.98. The 50% cytotoxic concentration (CC50) at 4 days in data set [2] was more than 25000 nM.

`C[C@@H](NS(=O)(=O)c1cc(C(=O)Nc2ccnc(Cl)c2)n(C)c1)C(C)(F)F` [Compound 103, N-(2-chloro-4-pyridyl)-4-[[(1R)-2,2-difluoro-1-methyl-propyl]sulfamoyl]-1-methyl-pyrrole-2-carboxamide] showed a pEC50 in data set [1] of 6.85. This molecule showed a CC50 at 4 days in data set [2] of more than 25000 nM.

For `Cc1cc(NC(=O)c2c(Cl)c(S(=O)(=O)N[C@H](C)C(C)(F)F)cn2C)cc(Cl)n1` [Compound 149, 3-chloro-N-(2-chloro-6-methyl-4-pyridyl)-4-[[(1R)-2,2-difluoro-1-methyl-propyl]sulfamoyl]-1-methyl-pyrrole-2-carboxamide], the pEC50 in data set [1] was 7.22. For the same molecule, the CC50 at 4 days in data set [2] was more than 25000 nM.

Consider `Cn1cc(S(=O)(=O)NC2(CF)CCC2)c(F)c1C(=O)Nc1ccnc(C(F)F)c1` [Compound 128, N-[2-(difluoromethyl)-4-pyridyl]-3-fluoro-4-[[1-(fluoromethyl)cyclobutyl]sulfamoyl]-1-methyl-pyrrole-2-carboxamide], for which the negative-log EC50 (pEC50) in data set [1] is 7.40. Besides, the CC50 at 4 days in data set [2] was more than 25000 nM.

`Cc1c(S(=O)(=O)N[C@H](C)C(F)(F)F)c(F)c(C(=O)Nc2ccnc(C#N)c2)n1C` [Compound 71, N-(2-cyano-4-pyridyl)-3-fluoro-1,5-dimethyl-4-[[(1R)-2,2,2-trifluoro-1-methyl-ethyl]sulfamoyl]pyrrole-2-carboxamide] had a pEC50 in data set [1] of 7.70. The molecule further returned a CC50 at 4 days in data set [2] of more than 25000 nM.

For `CC[C@@H](C)NS(=O)(=O)c1cn(C)c(C(=O)Nc2ccnc(Cl)c2)c1F` [Compound 69, N-(2-chloro-4-pyridyl)-3-fluoro-1-methyl-4-[[(1R)-1-methylpropyl]sulfamoyl]pyrrole-2-carboxamide], in data set [1], the pEC50 is 7.52. For the same molecule, the CC50 at 4 days in data set [2] is more than 25000 nM.

In turn, `C[C@@H](NS(=O)(=O)c1cn(C)c(C(=O)Nc2ccnc(Br)c2F)c1F)C(F)(F)F` [Compound 153, N-(2-bromo-3-fluoro-4-pyridyl)-3-fluoro-1-methyl-4-[[(1R)-2,2,2-trifluoro-1-methyl-ethyl]sulfamoyl]pyrrole-2-carboxamide] had a pEC50 in data set [1] of 7.70. Besides, the CC50 at 4 days in data set [2] was more than 25000 nM.

Regarding `Cn1cc(S(=O)(=O)NC2(C(F)(F)F)CCC2)c(F)c1C(=O)Nc1ccnc(Br)c1F` [Compound 166, N-(2-bromo-3-fluoro-4-pyridyl)-3-fluoro-1-methyl-4-[[1-(trifluoromethyl)cyclobutyl]sulfamoyl]pyrrole-2-carboxamide], the pEC50 in data set [1] is 8.52. The molecule also displayed a CC50 at 4 days in data set [2] of more than 25000 nM.

Take `Cn1cc(S(=O)(=O)NC2(C)CC(F)(F)C2)c(Cl)c1C(=O)Nc1ccnc(Cl)c1F` [Compound 114, 3-chloro-N-(2-chloro-3-fluoro-4-pyridyl)-4-[(3,3-difluoro-1-methyl-cyclobutyl)sulfamoyl]-1-methyl-pyrrole-2-carboxamide]: the pEC50 in data set [1] was 8.00. In data set [2], this molecule displayed a CC50 at 4 days of more than 25000 nM.

Turning to `Cn1cc(S(=O)(=O)NC2(C)CC(F)(F)C2)c(F)c1C(=O)Nc1ccnc(Br)c1F` [Compound 131, N-(2-bromo-3-fluoro-4-pyridyl)-4-[(3,3-difluoro-1-methyl-cyclobutyl)sulfamoyl]-3-fluoro-1-methyl-pyrrole-2-carboxamide], the pEC50 in data set [1] is 7.70. The molecule further yielded a CC50 at 4 days in data set [2] of more than 25000 nM.

Take `C[C@@H](NS(=O)(=O)c1cn(C)c(C(=O)Nc2ccc(F)c(C#N)n2)c1Cl)C(F)(F)F` [Compound 156, 3-chloro-N-(6-cyano-5-fluoro-2-pyridyl)-1-methyl-4-[[(1R)-2,2,2-trifluoro-1-methyl-ethyl]sulfamoyl]pyrrole-2-carboxamide]: the pEC50 in data set [1] is 6.85. Besides, the CC50 at 4 days in data set [2] is more than 25000 nM.

In data set [1], `Cn1cc(S(=O)(=O)NC2(C(F)(F)F)CCC2)c(Cl)c1C(=O)Nc1cc(F)nc(F)c1` [Compound 109, 3-chloro-N-(2,6-difluoro-4-pyridyl)-1-methyl-4-[[1-(trifluoromethyl)cyclobutyl]sulfamoyl]pyrrole-2-carboxamide] gave a pEC50 of 8.00. This molecule had a CC50 at 4 days in data set [2] of more than 25000 nM.

Consider `Cc1cc(NC(=O)c2c(Cl)c(S(=O)(=O)N[C@H](C)C(F)(F)F)cn2C)cc(Cl)n1` [Compound 141, 3-chloro-N-(2-chloro-6-methyl-4-pyridyl)-1-methyl-4-[[(1R)-2,2,2-trifluoro-1-methyl-ethyl]sulfamoyl]pyrrole-2-carboxamide], for which the pEC50 in data set [1] was 7.40. In addition, the CC50 at 4 days in data set [2] is more than 25000 nM.

In data set [1], `Cc1cc(NC(=O)c2c(F)c(S(=O)(=O)NC3(C(F)(F)F)CCC3)cn2C)cc(Br)n1` [Compound 164, N-(2-bromo-6-methyl-4-pyridyl)-3-fluoro-1-methyl-4-[[1-(trifluoromethyl)cyclobutyl]sulfamoyl]pyrrole-2-carboxamide] gave a negative logarithm of the EC50 (pEC50) of 7.40. This molecule showed a CC50 at 4 days in data set [2] of more than 25000 nM.

In turn, `Cc1cc(NC(=O)c2c(Cl)c(S(=O)(=O)N[C@H](C)C(F)(F)F)cn2C)cc(C)n1` [Compound 144, 3-chloro-N-(2,6-dimethyl-4-pyridyl)-1-methyl-4-[[(1R)-2,2,2-trifluoro-1-methyl-ethyl]sulfamoyl]pyrrole-2-carboxamide] had a pEC50 in data set [1] of 6.52. The cytotoxic concentration (CC50) at 4 days in data set [2] is more than 25000 nM.

Molecule `Cn1cc(S(=O)(=O)NC2(C)CC(F)(F)C2)c(Cl)c1C(=O)Nc1ccnc(C(F)(F)F)c1` [Compound 66, 3-chloro-4-[(3,3-difluoro-1-methyl-cyclobutyl)sulfamoyl]-1-methyl-N-[2-(trifluoromethyl)-4-pyridyl]pyrrole-2-carboxamide] gave a pEC50 in data set [1] of 7.05. Further, the CC50 at 4 days in data set [2] is more than 25000 nM.

In data set [1], `Cn1cc(S(=O)(=O)NC2(C(F)(F)F)CCOCC2)c(Cl)c1C(=O)Nc1ccnc(Cl)c1` [Compound 180, 3-chloro-N-(2-chloro-4-pyridyl)-1-methyl-4-[[4-(trifluoromethyl)tetrahydropyran-4-yl]sulfamoyl]pyrrole-2-carboxamide] gave a pEC50 of 6.20. In data set [2], this molecule registered a CC50 at 4 days of more than 25000 nM.
